Test results reported in US20240174703A1, “THREE-COORDINATE AU(I) PROBES AND USE IN SELECTIVELY DISRUPTING MITOCHONDRIA IN CANCER CELLS” (University of Kentucky Research Foundation, priority 2021, published 2024).

Assays:
MDA-MB-231 [1] = test: Cell viability (MTT assay) in TNBC cell line MDA-MB-231; type: cell-based; details: MDA-MB-231, MTT assay, 72 hours, mean ± s.e.m., n = 3
Protocol: Cell Culture. All cell lines were purchased from ATCC and routinely grown in a humidified incubator at 37° C. with 5-10% CO2. MDA-MB-468, MDA-MB-231, MDA-MB-175, MRCS, RPE-NEO, HCT116, and K562N were grown in DMEM supplemented with 10% FBS, 1% amphotericin and 1% penicillin/streptomycin. A2780 cells were grown in RPMI supplemented with 10% FBS, 1% amphotericin, and 1% penicillin/streptomycin, and 4 mM glutamine. All supplements along with PBS and trypsin-EDTA were purchased from Corning Inc. and used as is.
Cell Viability of AuTri-1-10 (Adherent Cell Lines). The cell viability of all 10 complexes were performed in MDA-MB-231. Additionally, AuTri-9 was evaluated in the following: MDA-MB-175, MA-MB-468, A2780, HCT116, OVCAR8 and MRCS. Cells were grown to confluency and trypsin was added to detach and harvest cells. The cells were washed with 2 mL of PBS and suspended in 10 mL of the appropriate media. The cells were centrifuged at 2000 rpm for 5 minutes and the pellet washed with 2 mL of PBS then suspended in 5 mL of the appropriate media. The cells were plated at a density of 2,000 cells/well in a 96-well clear bottom plate and allowed to adhere overnight at 37° C. with 5-10% CO2. The compounds were prepared as a stock in DMSO and used fresh. The compounds were added at seven concentrations (<1% DMSO) with a 3× serial dilution starting at 50 μM for the highest concentration and incubated at 37° C. for 72 h with 5-10% CO2. 1% DMSO were added to control wells as the vehicle control. The medium was removed and a solution of MTT (100 μL, prepared by dissolving MTT at 5 mg/mL and diluting by 10x with DMEM) was added to each well and incubated for 4 h at 37° C. with 5-10% CO2. The dye was removed from each well and 100 μL of DMSO was added to induce cell lysis. The plates were read using a Genios plate reader (λ=570 nm).

[2] = based on gold; cited from earlier work
MDA-MB-231 [3] = test: Transmission electron microscopy of mitochondrial morphology; type: cell-based; details: AuTri-9 10 μM for 1 h
Protocol: Transmission Electron Microscopy. MDA-MB-231 cells were seeded in 6 well plates and allowed to grow to 85% confluency. The cells were then treated with AuTri-9 at a concentration of 10 μM (<1% DMSO) for 1 h at 37° C. Growth media were removed and immediately and added 3% glutaraldehyde at 4° C. in 0.1 M Sorenson's or Cacodylate Buffer. After 5 minutes remove fix and replace with fresh fixative, leave for 45 min-1 hr at 4° C., washed in 0.1 M buffer w/5% sucrose 4×, 5 minutes each. Post fix, the cells were stained with 1% OsO4 in 0.1 M buffer for 1 hr at 4° C. and washed in 0.1 M buffer 1×. The cells were dehydrated in graded ethanols, 5 minutes each, from 50% through 100% and absolute ethanol (2×) at 4° C. After the last alcohol wash remove the residual alcohol with a small pipette and immediately add straight resin (14.5 g Eponate 12, 8.0 g DDSA, 7.15 g NMA, and 0.85 gm BDMA) to the dish. Swirl the dish and then remove as much of the resin, (which may contain residual alcohol), with a plastic pipette being careful not to disturb the cell layer. Then add straight resin 2× for 1-2 hours and place under the lamp, on a shaker. Pour off the 2nd straight resin wash, let the plate drain well (leaving a layer of resin on the bottom) and invert labeled beem capsules into each well that have had the conical ends removed. […]

Compound	IC50 (MDA-MB-231 [1]) [µM]	also measured
c1cnc2c(c1)ccc1cccnc12 [1,10-phenantrholine]		IC50 (MDA-MB-231 [1]; Homo sapiens): 7.21 ± 1.68 µM
Cc1ccnc2c1ccc1c(C)ccnc12 [4,7-dimethylphenanthroline]		IC50 (MDA-MB-231 [1]; Homo sapiens): 14.1 ± 2.58 µM
CC(=O)OC[C@H]1O[C@@H]([S-])[C@H](OC(C)=O)[C@@H](OC(C)=O)[C@@H]1OC(C)=O.CCP(CC)CC.[Au+] [Auranofin]	1.31 ± 0.15	MTD (maximum tolerated dose) [2]: 12 mg/kg
c1ccc(-c2ccnc3c2ccc2c(-c4ccccc4)ccnc23)cc1 [Bathophenanthroline]	7.48 ± 1.64	
c1ccc(-c2ccccn2)nc1 [Bipyridine]	17.5 ± 0.354	
N.N.[Cl][Pt][Cl] [Cisplatin]	34.6 ± 0.783	
OO [H2O2, hydrogen peroxide]		mitochondrial morphology by TEM (MDA-MB-231 [3]): distinct cytoplasmic swelling and membrane rupture (white star) is observed; however, the mitochondria structure remains intact
[F][Sb-]([F])([F])([F])([F])[F].[Na+] [NaSbF6]	> 50	
CN[C@@H]1C[C@H]2O[C@@](C)([C@@H]1OC)n1c3ccccc3c3c4c(c5c6ccccc6n2c5c31)C(=O)NC4 [staurosporine]		mitochondrial morphology by TEM (MDA-MB-231 [3]): no distinct morphological changes to mitochondria
